According to patent publication US8822699B2, “Heterocyclic compound and use thereof” (Takeda Pharmaceutical Company Limited, priority 2010, dated 2014):
Where two headings read alike, the source gives them in different places.

System: Aβ42 production in primary nerve cells
Assay: Measurement of amyloid β production inhibition rate using primary nerve cell (Aβ42 sandwich ELISA)
Assay type: cell-based
Conditions: primary nerve cells from cerebral cortex of SD rat fetus, cultured 3 days with compound, culture supernatant, sandwich ELISA for Aβ42, read-out: Aβ42 production inhibitory activity IC50
Procedure: Measurement of Amyloid β Production Inhibition Rate Using Primary Nerve Cell
The primary nerve cells were collected from the cerebral cortex of rat fetus (CLEA Japan, Inc.: SD rat, fetal life 17 days of age), and suspended in a neurobasal medium containing B27 supplement, L-glutamine, penicillin-streptomycin (manufactured by Invitrogen) at 500,000 cells/mL. Then, the suspension was seeded in poly L-lysine-coated 96 well plate (manufactured by SUMITOMO BAKELITE) by 100 μL, and cultured at 37° C., 5% CO2 for 7 days. The medium was completely removed, and a new neurobasal medium was added at 75 μL/well. Thereto was added (75 μL/well) a neurobasal medium supplemented with a 2-fold measurement concentration of an evaluation target compound, and the mixture was cultured for 3 days. The culture supernatant was collected from each well, diluted as appropriate, applied to sandwich ELISA between BNT77 antibody-BA27 antibody (for Aβ40) and sandwich ELISA between BNT77 antibody-3005 antibody (for Aβ42), and the amounts of Aβ40 and Aβ42 were measured.
The amyloid β production inhibition rate (%) of the compound was calculated by the following formula. (1−(amyloid β production amount with addition of compound)/(amyloid β production amount without addition of compound))×100
The amyloid β production 50% inhibitory rate (IC50 value) was calculated using the statistical analysis software (SAS Preclinical Package) as the concentration of the compound showing 50% inhibition when the amyloid β production amount without addition of the compound is 100%. In addition, a new neurobasal medium was added (75 μL/well) to the cells after collection of the culture supernatant, and the cells were left standing for about 30 min to reach room temperature. Cell-Titer Glo Luminescent Cell Viability Assay (manufactured by Promega) was added at 75 μL/well, and the plate was shaken for 2 min and reacted for about 10 min.

Row | SMILES | IC50 [nM] | IC50 (Rattus norvegicus, 72 h) [nM]
1 | COc1cc(-c2nnc3n2CCCC3(Cc2ccc(F)c(F)c2)C(C)(C)O)ccc1-c1cnc(C)o1 (centres unmarked) [Example 49, 2-{8-(3,4-difluorobenzyl)-3-[3-methoxy-4-(2-methyl-1,3-oxazol-5-yl)phenyl]-5,6,7,8-tetrahydro[1,2,4]triazolo[4,3-a]pyridin-8-yl}propan-2-ol] | 31 | 
2 | COc1cc(-c2nnc3n2CCCC3(Cc2ccc(F)c(F)c2)C(=O)N(C)CC(F)(F)F)ccc1-c1cnc(C)o1 (centres unmarked) [Example 60, 8-(3,4-difluorobenzyl)-3-[3-methoxy-4-(2-methyl-1,3-oxazol-5-yl)phenyl]-N-methyl-N-(2,2,2-trifluoroethyl)-5,6,7,8-tetrahydro[1,2,4]triazolo[4,3-a]pyridine-8-carboxamide] |  | 50
3 | COc1cc(-c2nnc3n2CCCC3(CC2CC2)c2ccc(Cl)c(C(F)(F)F)c2)ccc1-n1cnc(C)c1 (centres unmarked) [Example 78, 8-[4-chloro-3-(trifluoromethyl)phenyl]-8-(cyclopropylmethyl)-3-[3-methoxy-4-(4-methyl-1H-imidazol-1-yl)phenyl]-5,6,7,8-tetrahydro[1,2,4]triazolo-[4,3-a]pyridine] |  | 55
4 | COc1cc(-c2nnn3c2CCCC3(C)c2ccc(Cl)c(Cl)c2)ccc1-n1cnc(C)n1 (centres unmarked) [Example 91, 7-(3,4-dichlorophenyl)-3-[3-methoxy-4-(3-methyl-1H-1,2,4-triazol-1-yl)phenyl]-7-methyl-4,5,6,7-tetrahydro[1,2,3]triazolo[1,5-a]pyridine] |  | 148
5 | COc1cc(-c2nnc3n2CCCC3(Oc2ccc(C(F)(F)F)cn2)C(C)(C)O)ccc1-c1cnc(C)o1 (centres unmarked) [Example 95, 2-(3-[3-methoxy-4-(2-methyl-1,3-oxazol-5-yl)phenyl]-8-{[5-(trifluoromethyl)pyridin-2-yl]oxy}-5,6,7,8-tetrahydro[1,2,4]triazolo-[4,3-a]pyridin-8-yl)propan-2-ol] |  | 34
6 | COc1cc(-c2nnc3n2CCCC3(OCc2ccc(F)c(F)c2)C(=O)N(C)CC(F)(F)F)ccc1-c1cnc(C)o1 (centres unmarked) [Example 108, 8-[(3,4-difluorobenzyl)oxy]-3-[3-methoxy-4-(2-methyl-1,3-oxazol-5-yl)phenyl]-N-methyl-N-(2,2,2-trifluoroethyl)-5,6,7,8-tetrahydro[1,2,4]triazolo[4,3-a]pyridine-8-carboxamide] |  | 67
7 | COc1nc(-c2nnc3n2CCCC3(Oc2ccc(F)c(F)c2)C(C)(C)O)ccc1-n1cnc(C)c1 (centres unmarked) [Example 135, 2-{8-(3,4-difluorophenoxy)-3-[6-methoxy-5-(4-methyl-1H-imidazol-1-yl)pyridin-2-yl]-5,6,7,8-tetrahydro[1,2,4]triazolo[4,3-a]pyridin-8-yl}propan-2-ol] |  | 123
8 | COc1cc(-c2nnc3n2CC(C)CC3(Oc2ccc(F)c(F)c2)C(C)(C)O)ccc1-c1cnc(C)o1 (stereo not drawn) [Example 150, (6RS,8RS or 6RS,8SR)-2-{8-(3,4-difluorophenoxy)-3-[3-methoxy-4-(2-methyl-1,3-oxazol-5-yl)phenyl]-6-methyl-5,6,7,8-tetrahydro[1,2,4]triazolo[4,3-a]pyridin-8-yl}propan-2-ol] |  | 118
9 | COc1cc(-c2nnc3n2CCCC3(Oc2cc(F)c(F)c(F)c2)C(=O)N(C)CC(F)(F)F)ccc1-c1cnc(C)o1 (centres unmarked) [Example 160, 3-[3-methoxy-4-(2-methyl-1,3-oxazol-5-yl)phenyl]-N-methyl-N-(2,2,2-trifluoro-ethyl)-8-(3,4,5-trifluorophenoxy)-5,6,7,8-tetrahydro-[1,2,4]triazolo[4,3-a]pyridine-8-carboxamide] |  | 19
10 | COc1cc(-c2nnc3n2CCCC3(Oc2cc(F)c(F)c(F)c2)C(C)(C)O)ccc1-n1cnc(Cl)c1 (centres unmarked) [Example 165, 2-{3-[4-(4-chloro-1H-imidazol-1-yl)-3-methoxyphenyl]-8-(3,4,5-trifluorophenoxy)-5,6,7,8-tetrahydro[1,2,4]triazolo[4,3-a]pyridin-8-yl}propan-2-ol] |  | 143
11 | Cc1ncc(-c2ccc(-c3nnc4n3CCCC4(Oc3cc(F)c(F)c(F)c3)C(C)(C)O)cc2F)o1 (centres unmarked) [Example 166, 2-{3-[3-fluoro-4-(2-methyl-1,3-oxazol-5-yl)phenyl]-8-(3,4,5-trifluorophenoxy)-5,6,7,8-tetrahydro[1,2,4]triazolo[4,3-a]pyridin-8-yl}propan-2-ol] |  | 360
12 | Cc1ncc(-c2ccc(-c3nnc4n3CCCC4(Oc3ccc(F)c(F)c3)C(C)(C)O)cc2O)o1 (centres unmarked) [Example 168, 5-[8-(3,4-difluorophenoxy)-8-(1-hydroxy-1-methylethyl)-5,6,7,8-tetrahydro[1,2,4]triazolo[4,3-a]pyridin-3-yl]-2-(2-methyl-1,3-oxazol-5-yl)phenol] |  | 40
13 | COc1cc(-c2nnc3n2CCCC3(Oc2cc(F)c(F)c(F)c2)C(C)(C)O)ccc1-c1ccnc(C)c1 (centres unmarked) [Example 174, 2-{3-[3-methoxy-4-(2-methylpyridin-4-yl)phenyl]-8-(3,4,5-trifluorophenoxy)-5,6,7,8-tetrahydro[1,2,4]triazolo[4,3-a]pyridin-8-yl}propan-2-ol] |  | 44

More lines, now with the values ahead:

Row | IC50 [nM] | IC50 (Rattus norvegicus, 72 h) [nM] | SMILES
14 | 459 |  | COc1cc(-c2nnc3n2CCCC3(C)c2ccc(Cl)cc2)ccc1-c1cnc(C)o1 (single isomer, unassigned) [Example 3, 8-(4-chlorophenyl)-3-[3-methoxy-4-(2-methyl-1,3-oxazol-5-yl)phenyl]-8-methyl-5,6,7,8-tetrahydro[1,2,4]triazolo[4,3-a]pyridine]
15 | 32 |  | COc1cc(-c2nnc3n2CCCC3(C)c2ccc(Cl)cc2)ccc1-c1cnc(C)o1 (single isomer, unassigned) [Example 4, optically active 8-(4-chlorophenyl)-3-[3-methoxy-4-(2-methyl-1,3-oxazol-5-yl)phenyl]-8-methyl-5,6,7,8-tetrahydro[1,2,4]triazolo[4,3-a]pyridine]
16 | 35 |  | COc1cc(-c2nnc3n2CCCC3(CC2CC2)c2ccc(F)c(F)c2)ccc1-c1cnc(C)o1 (centres unmarked) [Example 20, 8-(cyclopropylmethyl)-8-(3,4-difluorophenyl)-3-[3-methoxy-4-(2-methyl-1,3-oxazol-5-yl)phenyl]-5,6,7,8-tetrahydro[1,2,4]triazolo-[4,3-a]pyridine]
17 |  | 143 | COc1cc(-c2nnc3n2CCCC3(c2ccc(F)c(F)c2)C(C)(C)O)ccc1-c1cnc(C)o1 (centres unmarked) [Example 32, 2-{8-(3,4-difluorophenyl)-3-[3-methoxy-4-(2-methyl-1,3-oxazol-5-yl)phenyl]-5,6,7,8-tetrahydro[1,2,4]triazolo[4,3-a]pyridin-8-yl}propan-2-ol]
18 | 14 |  | COc1cc(-c2nnc3n2CCCC3(Cc2ccc(F)c(F)c2)C(C)(C)O)ccc1-c1cnc(C)o1 (centres unmarked) [Example 50, optically active 2-{8-(3,4-difluorobenzyl)-3-[3-methoxy-4-(2-methyl-1,3-oxazol-5-yl)phenyl]-5,6,7,8-tetrahydro[1,2,4]triazolo[4,3-a]pyridin-8-yl}propan-2-ol]
19 |  | 10 | COc1cc(-c2nnc3n2CCCC3(Oc2ccc(Cl)c(F)c2)C(C)(C)O)ccc1-c1cnc(C)o1 (centres unmarked) [Example 70, 2-{8-(4-chloro-3-fluorophenoxy)-3-[3-methoxy-4-(2-methyl-1,3-oxazol-5-yl)phenyl]-5,6,7,8-tetrahydro[1,2,4]triazolo[4,3-a]pyridin-8-yl}propan-2-ol]
20 |  | 41 | COc1cc(-c2nnc3n2CCCC3(Sc2ccc(F)c(F)c2)C(C)(C)O)ccc1-c1cnc(C)o1 (centres unmarked) [Example 140, 2-{8-[(3,4-difluorophenyl)sulfanyl]-3-[3-methoxy-4-(2-methyl-1,3-oxazol-5-yl)phenyl]-5,6,7,8-tetrahydro[1,2,4]triazolo[4,3-a]pyridin-8-yl}propan-2-ol]
